Data on three molecules can be found in PMC4774911, “Biochemical Screening of Five Protein Kinases from Plasmodium falciparum against 14,000 Cell-Active Compounds” (PLoS ONE, 2016).

Several values for one entry are separate records, joined by “and”; a condition that tells them apart may be missing. Identical values can stand only once. Some results are limits rather than exact numbers.

What all share (assay): biochemical
One assay addresses T1, ACVR1B (Homo sapiens, UniProt P36896).
T1 sequence (P36896 1-505): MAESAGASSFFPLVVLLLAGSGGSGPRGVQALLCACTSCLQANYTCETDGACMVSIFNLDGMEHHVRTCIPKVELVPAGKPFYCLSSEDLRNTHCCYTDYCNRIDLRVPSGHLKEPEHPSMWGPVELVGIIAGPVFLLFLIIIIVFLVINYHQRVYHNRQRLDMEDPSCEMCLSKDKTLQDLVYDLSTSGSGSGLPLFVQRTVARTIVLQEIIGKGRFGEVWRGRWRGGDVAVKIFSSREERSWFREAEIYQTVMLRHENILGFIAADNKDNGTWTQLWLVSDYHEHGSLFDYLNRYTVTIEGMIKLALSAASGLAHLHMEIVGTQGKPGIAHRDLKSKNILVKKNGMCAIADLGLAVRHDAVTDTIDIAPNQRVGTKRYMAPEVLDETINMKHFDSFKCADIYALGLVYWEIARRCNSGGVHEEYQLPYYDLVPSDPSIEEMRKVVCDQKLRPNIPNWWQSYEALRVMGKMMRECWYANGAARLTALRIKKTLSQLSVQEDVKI

The next assay deals with CAMKK2 (Homo sapiens, UniProt Q96RR4).
A further assay has as its target T2, MERTK (Homo sapiens, UniProt Q12866).
T2 sequence (Q12866 1-999): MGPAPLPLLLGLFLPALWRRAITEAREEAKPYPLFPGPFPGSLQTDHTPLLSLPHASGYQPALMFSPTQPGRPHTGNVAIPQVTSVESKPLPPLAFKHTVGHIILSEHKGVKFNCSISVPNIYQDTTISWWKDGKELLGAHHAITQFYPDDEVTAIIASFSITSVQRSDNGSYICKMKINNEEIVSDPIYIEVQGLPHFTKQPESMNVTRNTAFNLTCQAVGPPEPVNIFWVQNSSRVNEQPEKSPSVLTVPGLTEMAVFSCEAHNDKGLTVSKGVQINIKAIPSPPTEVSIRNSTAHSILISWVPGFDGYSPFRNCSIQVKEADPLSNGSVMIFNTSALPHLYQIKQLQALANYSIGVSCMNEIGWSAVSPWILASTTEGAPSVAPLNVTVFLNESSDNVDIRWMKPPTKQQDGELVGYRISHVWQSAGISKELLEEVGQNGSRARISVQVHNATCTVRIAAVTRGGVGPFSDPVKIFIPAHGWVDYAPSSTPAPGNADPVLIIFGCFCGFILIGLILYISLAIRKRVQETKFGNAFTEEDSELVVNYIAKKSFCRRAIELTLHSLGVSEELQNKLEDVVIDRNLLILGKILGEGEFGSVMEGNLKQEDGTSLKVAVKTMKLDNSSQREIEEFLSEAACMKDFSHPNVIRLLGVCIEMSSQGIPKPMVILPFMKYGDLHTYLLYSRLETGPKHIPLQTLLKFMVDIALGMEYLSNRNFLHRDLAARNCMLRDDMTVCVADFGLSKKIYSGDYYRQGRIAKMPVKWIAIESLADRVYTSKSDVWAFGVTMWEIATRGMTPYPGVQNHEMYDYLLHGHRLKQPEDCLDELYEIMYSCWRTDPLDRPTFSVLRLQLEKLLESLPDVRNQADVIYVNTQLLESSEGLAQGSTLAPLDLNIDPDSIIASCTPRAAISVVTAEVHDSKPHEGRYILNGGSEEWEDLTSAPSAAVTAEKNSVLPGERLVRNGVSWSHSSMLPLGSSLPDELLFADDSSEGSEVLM

Another assay addresses T3, STK11 (Homo sapiens, UniProt Q15831).
T3 sequence (Q15831 1-433): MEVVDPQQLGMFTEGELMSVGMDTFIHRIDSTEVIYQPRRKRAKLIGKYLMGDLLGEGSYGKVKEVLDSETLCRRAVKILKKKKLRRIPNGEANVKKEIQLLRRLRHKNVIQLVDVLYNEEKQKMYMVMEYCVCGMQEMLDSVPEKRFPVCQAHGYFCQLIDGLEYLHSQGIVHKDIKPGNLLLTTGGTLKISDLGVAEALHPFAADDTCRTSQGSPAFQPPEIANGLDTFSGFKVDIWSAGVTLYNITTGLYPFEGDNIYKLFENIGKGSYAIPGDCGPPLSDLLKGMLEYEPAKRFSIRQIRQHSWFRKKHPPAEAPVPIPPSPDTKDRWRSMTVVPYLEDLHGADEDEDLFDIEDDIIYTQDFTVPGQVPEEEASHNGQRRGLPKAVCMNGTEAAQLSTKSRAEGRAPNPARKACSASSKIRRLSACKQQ

For a further assay, the target named is T4, TTK (Homo sapiens, UniProt P33981).
T4 sequence (P33981 1-857): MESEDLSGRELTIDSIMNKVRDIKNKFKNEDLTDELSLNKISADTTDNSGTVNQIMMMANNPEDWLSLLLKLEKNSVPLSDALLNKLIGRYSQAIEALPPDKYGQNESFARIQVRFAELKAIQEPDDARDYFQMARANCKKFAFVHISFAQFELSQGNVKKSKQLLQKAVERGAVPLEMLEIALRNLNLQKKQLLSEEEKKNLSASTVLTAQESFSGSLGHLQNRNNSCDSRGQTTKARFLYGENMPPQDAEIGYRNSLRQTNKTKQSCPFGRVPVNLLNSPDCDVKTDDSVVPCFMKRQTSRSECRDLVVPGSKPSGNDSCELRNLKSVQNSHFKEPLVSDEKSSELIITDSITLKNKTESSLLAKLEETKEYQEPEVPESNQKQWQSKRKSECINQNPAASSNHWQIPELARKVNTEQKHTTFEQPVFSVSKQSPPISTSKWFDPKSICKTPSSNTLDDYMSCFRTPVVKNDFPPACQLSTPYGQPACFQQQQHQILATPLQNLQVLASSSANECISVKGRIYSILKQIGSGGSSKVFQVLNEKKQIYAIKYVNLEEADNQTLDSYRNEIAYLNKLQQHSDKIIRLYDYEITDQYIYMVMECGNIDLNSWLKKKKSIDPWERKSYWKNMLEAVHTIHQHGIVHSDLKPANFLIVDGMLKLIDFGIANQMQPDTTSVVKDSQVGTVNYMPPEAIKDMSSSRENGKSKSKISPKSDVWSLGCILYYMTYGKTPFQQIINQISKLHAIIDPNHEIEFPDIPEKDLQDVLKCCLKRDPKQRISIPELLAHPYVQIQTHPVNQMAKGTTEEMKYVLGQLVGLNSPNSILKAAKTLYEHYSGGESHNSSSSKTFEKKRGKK

Chain of CAMKK2 (Q96RR4 whole entry): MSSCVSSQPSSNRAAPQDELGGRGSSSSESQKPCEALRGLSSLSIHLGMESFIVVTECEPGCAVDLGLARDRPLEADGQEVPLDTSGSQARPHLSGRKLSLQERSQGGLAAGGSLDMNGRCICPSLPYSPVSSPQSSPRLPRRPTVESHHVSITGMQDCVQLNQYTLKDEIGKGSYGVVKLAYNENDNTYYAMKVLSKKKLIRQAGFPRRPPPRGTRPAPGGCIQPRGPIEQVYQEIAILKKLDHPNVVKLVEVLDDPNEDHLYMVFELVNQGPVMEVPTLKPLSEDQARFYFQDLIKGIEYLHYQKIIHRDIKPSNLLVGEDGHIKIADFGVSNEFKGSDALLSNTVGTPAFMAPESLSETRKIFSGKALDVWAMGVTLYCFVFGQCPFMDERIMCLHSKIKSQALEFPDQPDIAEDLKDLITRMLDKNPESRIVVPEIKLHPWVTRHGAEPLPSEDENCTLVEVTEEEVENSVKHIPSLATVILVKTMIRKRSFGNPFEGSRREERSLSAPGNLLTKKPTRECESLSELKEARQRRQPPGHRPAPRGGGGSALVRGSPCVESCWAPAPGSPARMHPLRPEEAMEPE

`CN1CCN(c2ccc(Nc3ncc(C#N)c(Nc4ccccc4C(N)=O)n3)cc2)CC1.Cl` [TCMDC-134116]: the IC50 against ACVR1B was 4000 nM; on CAMKK2, 360 nM and 380 nM; against MERTK, 630 nM; on STK11 it was 1000 nM; on TTK it was 540 nM and 440 nM.

For the molecule `Cl.NCC1(c2nc(-c3ccc(Cl)c(O)c3)c(-c3ccncc3)[nH]2)CCCCC1` [TCMDC-141154], the IC50 against ACVR1B was 590 nM; against CAMKK2, over 20000 nM; against MERTK, 9300 nM; at STK11, 1400 nM; on TTK, over 20000 nM.

For the molecule `CN(C)CC(O)COc1ccc(Nc2ncc([N+](=O)[O-])c(Nc3ccccc3O)n2)cc1.O=C(O)C(F)(F)F` (stereo not drawn) [TCMDC-141399], the IC50 against ACVR1B is over 20000 nM; at CAMKK2, 5300 nM and 5600 nM; against MERTK, 1100 nM; against STK11 it was 4400 nM; against TTK, over 20000 nM.

Broadly, the IC50 is the concentration that gives 50% inhibition. Low values mean greater potency, high ones weaker potency.
